Measurements taken from publication doi:10.1101/2024.12.09.627564, “Cannabinoid inhibition of mechanosensitive K^+ channels” (bioRxiv, 2024).

Tests used:
[1] = target: T1, Homo sapiens TREK-2 (Homo sapiens, UniProt P57789); assay: Excised inside-out patch recording of TREK-2 from Xenopus oocytes; type: biochemical
T1 construct: TREK-2 amino acids 1–538; expressed in transfected cells; host or cells: Xenopus laevis oocytes, cRNA injection
T1 sequence (P57789 1-538): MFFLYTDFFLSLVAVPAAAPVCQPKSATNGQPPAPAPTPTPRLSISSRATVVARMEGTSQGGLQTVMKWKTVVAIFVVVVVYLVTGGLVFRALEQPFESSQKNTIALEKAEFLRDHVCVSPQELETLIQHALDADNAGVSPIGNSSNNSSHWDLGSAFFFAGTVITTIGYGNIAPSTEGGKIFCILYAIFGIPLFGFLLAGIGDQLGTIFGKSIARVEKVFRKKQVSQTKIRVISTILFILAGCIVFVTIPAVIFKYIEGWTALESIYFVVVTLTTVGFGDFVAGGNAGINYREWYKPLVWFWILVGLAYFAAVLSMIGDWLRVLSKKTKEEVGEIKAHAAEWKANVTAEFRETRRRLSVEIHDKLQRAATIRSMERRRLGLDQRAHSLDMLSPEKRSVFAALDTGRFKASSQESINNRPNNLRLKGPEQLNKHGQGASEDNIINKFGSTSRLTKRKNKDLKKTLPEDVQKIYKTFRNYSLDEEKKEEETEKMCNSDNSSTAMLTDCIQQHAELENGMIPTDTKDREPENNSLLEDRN
Text: (§1) For patch clamp recording from Xenopus oocytes, genes encoding full-length Homo sapiens TRAAK (UniProt Q9NYG8–2), TREK-1 (UniProt O95069), and TREK-2 (UniProt P57789) were codon optimized for eukaryotic expression, synthesized (Genewiz), and cloned into a modified pGEMHE vector using Xho1 and EcoR1 restriction sites. The transcribed messages encode H. sapiens TRAAK amino acids 1–393, TREK-1 amino acids 1–426, or TREK-2 amino acids 1–538 with an additional three amino acids (SNS) at the C terminus. TRAAK mutants were introduced by polymerase chain reaction (PCR). Linearized DNA was transcribed in vitro using T7 polymerase. Complementary RNA (0.1 to 10 ng for TRAAK, TREK-1, TREK-2, and mutants) in 50 nL H2O was injected into Xenopus laevis oocytes extracted from anesthetized frogs. Currents were recorded at 25 °C from inside-out patches excised from oocytes 1 to 5 d after RNA injection. […]
(§2) Patches were evaluated with voltage-step protocols to confirm TRAAK expression and minimal non-specific leak based on reversal potential. Currents were recorded using an Axopatch 200B amplifier (Molecular Devices) at a bandwidth of 1 kHz and digitized with an Digidata 1550B (Molecular Devices) at 100–500 kHz using pClamp10.7 software. […] In an effort to minimize variability associated with differences in resting membrane tension, we targeted patches with low basal curvature and low resting channel activity and ensured measured pressure difference across the patch was as close to zero as possible at rest to prevent mechanical activation of channels. Data were analyzed using Clampfit 10.7, Excel, and Graphpad Prism software. […]
(§3) To avoid cannabinoid absorption to plastic, cannabinoid solutions were made in glass vials and diluted by weight, perfusion was performed using glass tubing pulled from borosilicate glass Pasteur pipettes (Fisherbrand, Cat# 13–678-20C), and recordings were performed in glass chambers. Channel activity was continuously recorded during perfusion steps. […]

[2] = target: T2, TRAAKA270P (Homo sapiens, UniProt Q9NYG8, A244P); assay: Excised patch recording of TRAAK mutant A270P; type: biochemical
T2 construct: The transcribed messages encode H. sapiens TRAAK amino acids 1–393; expressed in transfected cells; host or cells: Xenopus laevis oocytes, cRNA injection
T2 sequence (Q9NYG8 1-393 A244P): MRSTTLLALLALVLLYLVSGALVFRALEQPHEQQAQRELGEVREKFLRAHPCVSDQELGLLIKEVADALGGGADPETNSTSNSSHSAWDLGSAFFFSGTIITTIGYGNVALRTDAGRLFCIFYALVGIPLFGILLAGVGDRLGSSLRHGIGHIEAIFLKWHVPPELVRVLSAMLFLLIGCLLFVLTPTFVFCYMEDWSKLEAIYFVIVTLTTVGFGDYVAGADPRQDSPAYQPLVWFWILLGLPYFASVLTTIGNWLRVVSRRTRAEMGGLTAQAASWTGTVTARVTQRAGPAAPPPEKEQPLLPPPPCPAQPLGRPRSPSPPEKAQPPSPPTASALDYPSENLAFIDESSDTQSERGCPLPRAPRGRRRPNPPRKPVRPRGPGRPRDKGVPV
Text: as §1, §2, §3

**Q.** Which IC50 [1] does the source give for C=C(C)[C@@H]1CCC(C)=C[C@H]1c1c(O)cc(CCCCC)cc1O [CBD, Cannabidiol] here?
**A.** 1300 nM

**Q.** What about the Hill-coefficient ([1]; TREK-2 dose-response) of the same compound?
**A.** 3.8

**Q.** What about the “fold less sensitive than TRAAK” value ([1]; TREK-2 vs TRAAK) of the same compound?
**A.** ~ 10 fold

**Q.** And the IC50 [2]?
**A.** 1120 ± 40 nM

**Q.** And the “inhibition of channel activity at high concentration” value ([2]; 10 μM CBD)?
**A.** fully inhibited

**Q.** What about the “fold less sensitive than wild-type TRAAK” value ([2]; A270P vs wild-type) of the same compound?
**A.** ~ 8 fold
